Source: ChEMBL document CHEMBL1201862, “PubChem BioAssay data set” (2004)
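Each compound was tested at five concentrations against cells in 96-well plates for 48 hours. GI50 marks 50% less growth.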 Calls of active or inactive are those of the source. Rule as the data show it: active = GI50 up to about 1.1 µM and inactive = higher.

Tests used:
Assay in all cases: growth of human tumour cells (NCI), 48 h
SNB-75 = test system: SNB-75
KM12 = test system: KM12
KM-20L2 = test system: KM-20L2
SK-OV-3 = test system: SK-OV-3
HL-60 = test system: HL-60
UACC-257 = test system: UACC-257
ACHN = test system: ACHN
OVCAR-8 = test system: OVCAR-8
M19-MEL = test system: M19-MEL
SN12C = test system: SN12C
NCI-H226 = test system: NCI-H226
NCI-H23 = test system: NCI-H23
K562 = test system: K562
COLO 205 = test system: COLO 205
RPMI-8226 = test system: RPMI-8226
UO-31 = test system: UO-31
Malme-3M = test system: Malme-3M
SF-295 = test system: SF-295
OVCAR-4 = test system: OVCAR-4
CCRF-CEM = test system: CCRF-CEM
LOX IMVI = test system: LOX IMVI
MOLT-4 = test system: MOLT-4
HT-29 = test system: HT-29
SF-539 = test system: SF-539
SW-620 = test system: SW-620
SNB-19 = test system: SNB-19
SNB-78 = test system: SNB-78
SK-MEL-5 = test system: SK-MEL-5
HCT-15 = test system: HCT-15
SR = test system: SR
HOP-62 = test system: HOP-62
UACC-62 = test system: UACC-62
A549 = test system: A549
IGROV-1 = test system: IGROV-1
HCT-116 = test system: HCT-116
NCI-H522 = test system: NCI-H522
XF498 = test system: XF498
HOP-18 = test system: HOP-18
DMS-114 = test system: DMS-114
M14 = test system: M14
DLD-1 = test system: DLD-1
SK-MEL-2 = test system: SK-MEL-2
RXF 393 = test system: RXF 393
SK-MEL-28 = test system: SK-MEL-28
A498 = test system: A498
EKVX = test system: EKVX
OVCAR-3 = test system: OVCAR-3
U-251 = test system: U-251
LXFL 529 = test system: LXFL 529
SF-268 = test system: SF-268
786-0 = test system: 786-0
NCI-H460 = test system: NCI-H460
CAKI-1 = test system: CAKI-1
TK-10 = test system: TK-10
OVCAR-5 = test system: OVCAR-5
HOP-92 = test system: HOP-92
HCC 2998 = test system: HCC 2998

Measured: GI50

C[N+](C)(C)CC1CCC/C1=N\OC(=O)c1ccccc1 (configuration not stated)
inactive: SNB-75 > 100 µM | KM12 > 100 µM | KM-20L2 > 100 µM | SK-OV-3 > 100 µM | HL-60 > 100 µM | UACC-257 > 100 µM | ACHN > 100 µM | OVCAR-8 > 100 µM | M19-MEL > 100 µM | SN12C > 100 µM | NCI-H226 > 100 µM | NCI-H23 > 100 µM | K562 > 100 µM | COLO 205 > 100 µM | RPMI-8226 > 100 µM | UO-31 > 100 µM | Malme-3M > 100 µM | SF-295 > 100 µM | OVCAR-4 > 100 µM | CCRF-CEM > 100 µM | LOX IMVI > 100 µM | MOLT-4 > 100 µM | HT-29 > 100 µM | SF-539 > 100 µM | SW-620 > 100 µM | SNB-19 > 100 µM | SNB-78 > 100 µM | SK-MEL-5 > 100 µM | SR > 100 µM | HOP-62 > 100 µM | UACC-62 > 100 µM | A549 > 100 µM | IGROV-1 > 100 µM | HCT-116 > 100 µM | NCI-H522 > 100 µM | XF498 > 100 µM | HOP-18 > 100 µM | DMS-114 > 100 µM | M14 > 100 µM | DLD-1 > 100 µM | SK-MEL-2 > 100 µM | RXF 393 > 100 µM | SK-MEL-28 > 100 µM | A498 > 100 µM | EKVX > 100 µM | OVCAR-3 > 100 µM | U-251 > 100 µM | LXFL 529 > 100 µM | SF-268 > 100 µM | 786-0 > 100 µM
> 100 µM: HCT-15

Cc1ccc(NC(=O)C2C(=O)N(c3ccc(C)c(C)c3)C(=O)/C2=N\NC(N)=O)cc1C (configuration not stated)
79.4 µM: HCT-15
inactive: SNB-75 > 100 µM | KM12 > 100 µM | KM-20L2 > 100 µM | SK-OV-3 > 100 µM | HL-60 81.5 µM | UACC-257 > 100 µM | ACHN > 100 µM | NCI-H460 > 100 µM | OVCAR-8 62.2 µM | M19-MEL > 100 µM | SN12C 77.3 µM | NCI-H226 > 100 µM | NCI-H23 42.8 µM | K562 52.7 µM | COLO 205 > 100 µM | RPMI-8226 69.2 µM | CAKI-1 > 100 µM | UO-31 57.4 µM | Malme-3M > 100 µM | SF-295 86.9 µM | OVCAR-4 > 100 µM | CCRF-CEM 73.8 µM | LOX IMVI > 100 µM | MOLT-4 88.9 µM | HT-29 > 100 µM | SF-539 > 100 µM | SW-620 > 100 µM | SNB-19 > 100 µM | SNB-78 > 100 µM | TK-10 > 100 µM | SK-MEL-5 > 100 µM | HOP-62 > 100 µM | UACC-62 94.6 µM | A549 52.8 µM | IGROV-1 89.5 µM | HCT-116 85.3 µM | NCI-H522 55.1 µM | XF498 > 100 µM | HOP-18 7.85 µM | OVCAR-5 > 100 µM | HOP-92 63.5 µM | DMS-114 56.9 µM | M14 > 100 µM | DLD-1 > 100 µM | SK-MEL-2 96.4 µM | RXF 393 > 100 µM | HCC 2998 > 100 µM | SK-MEL-28 > 100 µM | A498 > 100 µM | EKVX 55.8 µM | OVCAR-3 38.4 µM | U-251 57.3 µM | LXFL 529 59.7 µM | SF-268 74 µM | 786-0 > 100 µM
